Measured values reported in patent publication US20240156790A1, “COMPOUNDS, COMPOSITIONS, AND METHODS FOR MODULATING FERROPTOSIS AND TREATING EXCITOTOXIC DISORDERS” (THE TRUSTEES OF COLUMBIA UNIVERSITY IN THE CITY OF NEW YORK, priority 2018, published 2024).
Entries after “also recorded” stand apart in the source; their conditions may differ. Read-outs that look alike come from different tables or passages of the source.

How the values were obtained:
[1] = TH-2-31, TH-4-55-2, TH-4-67 PK Study (IP, IV, PO; plasma and brain); format: in vivo, C57BL/6 mice; details: for Cmax brain (nM) / concentration in brain following IV administration (rapid accumulation) / half-life / concentration at 24 h / Cmax: 20 mg/kg; for half-life / concentration at 24 h / Cmax: both sexes, C57BL/6, mouse; for half-life: read-out: in vivo brain t1/2; for brain penetrance / accumulation in brain over plasma, in words: mouse, in vivo; for stability / accumulation in plasma in vivo, in words: up to 24 hours
Method: C57BL/6 mice (8-weeks of age and ˜25 g weight) were weighed before injection and divided into groups of two male and female mice per cage. Compound was dissolved in 5% DMSO/95% of 1:1 [(65% v/v of 25% w/v 2-hydroxypropyl-3-cyclodextrin (Cayman Chemical) dissolved in 20% EtOH, 30% v/v Poly(ethylene glycol)-400 (Sigma Aldrich 202398), 5% v/v Tween 80 (Fluka 59924)):MilliQ water] to create a 2 mg/mL solution. The same formulation without compound was used as a vehicle control. The solution was sterilized using a […] Steriflip filter unit (Thomas Scientific 1189Q46). Mice were dosed IP, IV, and PO routes of administration and euthanized by CO2 asphyxiation for 3 min at 0, 1, 2, 4, 8, and 24 h after administration. To ensure that the vehicle was well-tolerated 4 mice were treated with vehicle and euthanized 4 h after administration. ˜0.5 mL of blood was collected via cardiac puncture and immediately put in K3 EDTA microtubes ([…] 41.1504.105) and kept on ice. Organs were harvested, placed in Eppendorf tubes, and frozen on dry ice. Blood samples were centrifuged for 10 min at 2,100×g at 4° C., then plasma was transferred to a clean tube and frozen on dry ice. Organ samples were weighed and placed in hard tissue homogenizing tubes (Omni International 19-628) and a volume of DEPC-treated nuclease-free water (IBI Scientific IB42200) was added to make a 500 mg/mL solution and homogenized using the Omni Bead Ruptor 4 at speed 5 for 30 seconds. Compound was extracted from plasma or organ homogenate by adding 900 μL acetonitrile to 100 μL plasma or organ homogenate. Samples were mixed by vortexing and allowed to extract overnight at 4° C. prior to mixing for at least 5 min by rotating at room temperature, vortexing, and sonicating for at least 30 second prior to centrifugation for 10 min at 4,000×g and 4° C. The supernatant was then transferred to a glass vial and analyzed by UPLC-MS described below. The concentration of each analog was determined against a standard curve with a nonlinear fit and the data plot in GraphPad Prism 9 and fit with a one phase decay.
Samples from animal studies were analyzed via UPLC-MS using a Waters Xevo G2-Xs QTof Mass spectrometer equipped with an Acquity UPLC. Chromatographic separation was carried out at 50° C. on a Acquity UPLC BEH C18 column (1.7 μm, 2.1 mm×50 mm, pore size 130 Å) over a 4.5 min gradient elution. The flowrate was held constant at 0.8 mL/min. Mobile phase A consisted of water and mobile phase B consisted of ACN both containing 0.1% formic acid. After injection, the gradient was held at 50% A for 0.25 min. For the next minute, the gradient was ramped in a linear fashion to 100% B and held at this composition for 0.5 min. The eluent composition returned to the initial condition in 0.01 min and the column was re-equilibrated for 2.74 min before the next injection. Injection volumes were 0.5 μL (TH-2-31 40 mg/kg) and 1 μL for all other conditions. The Xevo G2-Xs was operated in positive electrospray ionization (ESI) mode. A capillary voltage and sampling cone voltage of 0.5 kV and 30 V were used. The source and desolvation temperatures were kept at 120° C. and […], respectively. Nitrogen was used as the desolvation gas with a flowrate of 750 L/hr. The protonated molecular ion of leucine encephalin ([M+H]^+, m/z 556.2771 was used as a lock mass for mass accuracy and reproducibility. Leucine enkephalin was introduced to the lock mass at a concentration of 2 ng/mL (50% ACN containing 0.1% formic acid), and a flow rate of […]. To avoid signal saturation, the signal transmission was attenuated to <10%, based off the signal intensity of the highest standard concentration for the duration of the run. The data was collected over the mass range m/z 50 to 1200 Da with an acquisition time of 0.1 seconds per scan. The retention time for each analog is detailed below. […]

HT-1080 cells = experiment: Cell viability assays in HT-1080 cells, ferroptosis induced by IKE or RSL3 (Example 8); format: cell-based; details: for IC50: Homo sapiens, HT-1080, 48 h
[2] = plasma, all routes of administration, read-out: concentration in plasma 24 hours after administration
[3] = ^b 2 μM IKE, 48 hours, 1,000 cells/well
[4] = ^c 0.2 μM RSL3, 48 hours, 1,000 cells/well

Compound: CCC(CC)Nc1cc(-c2nc(C)no2)cnc1NC1CCCCC1 [TH-4-55-2, N^2-cyclohexyl-5-(3-methyl-1,2,4-oxadiazol-5-yl)-N^3-(pentan-3-yl)pyridine-2,3-diamine]
- Cmax brain/ IC50 ([1]; IP): 1,765
- Cmax brain (nM) ([1]; IP): 3,936 nM
- Cmax brain/ IC50 ([1]; IV): 35,567
- Cmax brain (nM) ([1]; IV): 79,314 nM
- concentration in brain following IV administration (rapid accumulation) ([1]; IV): > 75 µM
- Cmax brain/ IC50 ([1]; PO): 632
- Cmax brain (nM) ([1]; PO): 1,410 nM
- time present in plasma at μM concentrations ([1]; all routes of administration): up to 8 hours
- half-life ([1]; brain, ip, R.O.A. IP): > 8 h
- half-life ([1]; brain, iv, R.O.A. IV): < 1 h
- concentration at 24 h ([1]; brain, other: IP and PO, IP and PO administration, read-out: concentration in brain 24 hours post administration): > 1 µM
- half-life ([1]; brain, po, R.O.A. PO): > 24 h
- Cmax ([1]; plasma, ip): 63.8 µM
- Cmax ([1]; plasma, iv): 32.1 µM
- Cmax ([1]; plasma, po): 2.93 µM
- concentration at 24 h [1, 2]: > 0.8 µM
- brain penetrance / accumulation in brain over plasma, in words [1]: preferentially accumulate in brain over plasma for all time-points following IV administration
- stability / accumulation in plasma in vivo, in words [1]: accumulated the most

Compound: Cc1noc(-c2cnc(NC3CCCC3)c(NC3CCCC3)c2)n1 [TH-4-67, N^2,N^3-dicyclopentyl-5-(3-methyl-1,2,4-oxadiazol-5-yl)pyridine-2,3-diamine]
- Cmax brain/ IC50 ([1]; IP): 1,389
- time present in plasma at μM concentrations ([1]; IP administration): up to 2 hours
- Cmax brain (nM) ([1]; IP): 2,916 nM
- Cmax brain/ IC50 ([1]; IV): 24,820
- Cmax brain (nM) ([1]; IV): 52,121 nM
- concentration in brain following IV administration (rapid accumulation) ([1]; IV): > 50 µM
- Cmax brain/ IC50 ([1]; PO): 740
- time present in plasma at μM concentrations ([1]; PO and IV administration): up to 1 hour
- Cmax brain (nM) ([1]; PO): 1,554 nM
- concentration at 24 h ([1]; brain, all routes of administration, read-out: concentration in brain 24 hours post administration): < 0.2 µM
- half-life ([1]; brain, iv, R.O.A. IV): < 1 h
- Cmax ([1]; plasma, ip): 82.1 µM
- Cmax ([1]; plasma, iv): 40.6 µM
- Cmax ([1]; plasma, po): 1.77 µM
- concentration at 24 h [1, 2]: < 0.025 µM
- stability / accumulation in plasma in vivo, in words [1]: accumulated the least; also recorded: the least stable

Compound: Cc1noc(-c2cnc(NC3CCCCC3)c(NC3CCCCC3)c2)n1 [TH-2-31, N^2,N^3-dicyclohexyl-5-(3-methyl-1,2,4-oxadiazol-5-yl)pyridine-2,3-diamine]
- Cmax brain/ IC50 ([1]; IP): 633
- Cmax brain (nM) ([1]; IP): 2,133 nM
- Cmax brain/ IC50 ([1]; IV): 99,335
- Cmax brain (nM) ([1]; IV): 334,759 nM
- concentration in brain following IV administration (rapid accumulation) ([1]; IV): greater than 300 μM
- Cmax brain/ IC50 ([1]; PO): 353
- Cmax brain (nM) ([1]; PO): 1,190 nM
- half-life ([1]; brain, ip, R.O.A. IP): > 8 h
- half-life ([1]; brain, iv, R.O.A. IV): < 1 h
- concentration at 24 h ([1]; brain, iv, read-out: concentration in brain 24 hours after administration): 10 µM
- half-life ([1]; brain, po, R.O.A. PO): > 24 h
- Cmax ([1]; plasma, ip): 50.9 µM
- Cmax ([1]; plasma, iv): 25.8 µM
- Cmax ([1]; plasma, po): 2.24 µM
- concentration at 24 h [1, 2]: > 0.5 µM
- brain penetrance / accumulation in brain over plasma, in words [1]: preferentially accumulate in brain over plasma for all time-points following IV administration
- potency relative to fer-1 at suppressing ferroptosis, in words (HT-1080 cells): potencies greater than fer-1
- IC50 (HT-1080 cells; [3]): 5.6 nM
- IC50 (HT-1080 cells; [4]): 4.8 nM

Compound: CCOC(=O)c1ccc(NC2CCCCC2)c(N)c1 [Fer-1, Ferrostatin-1, reference compound]
- IC50 (HT-1080 cells; [3]): 9.1 nM
- IC50 (HT-1080 cells; [4]): 3.6 nM

Compound: Cc1noc(-c2ccc(NC3CCCCC3)c(NC3CCCCC3)c2)n1 [PHB4082, N1,N2-dicyclohexyl-4-(3-methyl-1,2,4-oxadiazol-5-yl)benzene-1,2-diamine]
- potency relative to fer-1 at suppressing ferroptosis, in words (HT-1080 cells): more potent than fer-1
